# Measurements reported in PMC5415745, “Drug-transporter mediated interactions between anthelminthic and antiretroviral drugs across the Caco-2 cell monolayers” (BMC Pharmacology & Toxicology, 2017).
# Values joined by “and” are separate entries in the source; they are usually repeats but may differ in a detail not shown here. Equal values may be shown once.
# Key:
# [1] = Bidirectional (AP→BL, BL→AP) drug transport across Caco-2 cell monolayers in transwells: cumulative transport, Papp, efflux ratio; HPLC or radiolabeled assay; settings: human
# [2] = tested on: Caco-2 cell monolayers; experiment: as above; settings: for Effect on the transport of IVM / Effect on the transport of PZQ: labelled drug is the interacting drug
# [3] = cited from earlier work
# [4] = Caco-2, Papp AP → BL, mean (n=3) after 60 min, drug A alone, or label 'A + B' = transport of A in presence of interacting drug B, concentrations per Table 1
# [5] = Caco-2, Papp BL → AP, mean (n=3) after 60 min, drug A alone, or label 'A + B' = transport of A in presence of interacting drug B, concentrations per Table 1
# [6] = [3H] NVP alone, 60 min, individual experiments 1-3
# [7] = [3H] NVP alone, 60 min, mean, n=3
# [8] = [3H] NVP alone, 120 min, individual experiments 1-3
# [9] = [3H] NVP alone, 120 min, mean, n=3
# [10] = [3H] NVP alone, 180 min, individual experiments 1-3
# [11] = [3H] NVP alone, 180 min, mean, n=3
# [12] = [3H] NVP alone, 240 min, individual experiments 1-3
# [13] = [3H] NVP alone, 240 min, mean, n=3
# [14] = [3H] NVP alone, after 60 min, samples 1-3
# [15] = [3H] LPV alone, 60 min, individual experiments 1-3
# [16] = [3H] LPV alone, 60 min, mean, n=3
# [17] = [3H] LPV alone, 120 min, individual experiments 1-3
# [18] = [3H] LPV alone, 120 min, mean, n=3
# [19] = [3H] LPV alone, 180 min, individual experiments 1-3
# [20] = [3H] LPV alone, 180 min, mean, n=3
# [21] = [3H] LPV alone, 240 min, individual experiments 1-3
# [22] = [3H] LPV alone, 240 min, mean, n=3
# [23] = [3H] LPV alone, after 60 min, samples 1-3
# [24] = SQV alone (PZQ experiment), 60 min, mean
# [25] = SQV alone (PZQ experiment), 60 min, samples 1-3
# [26] = SQV alone (PZQ experiment), 120 min, mean
# [27] = SQV alone (PZQ experiment), 120 min, samples 1-3
# [28] = SQV alone (PZQ experiment), 180 min, mean
# [29] = SQV alone (PZQ experiment), 180 min, samples 1-3
# [30] = SQV alone (PZQ experiment), 240 min, mean
# [31] = SQV alone (PZQ experiment), 240 min, samples 1-3
# [32] = SQV alone (PZQ experiment), after 60min, mean
# [33] = SQV alone, 60 min, individual experiments 1-3
# [34] = SQV alone, 180 min, individual experiments 1-3
# [35] = SQV alone, 240 min, individual experiments 1-3
# [36] = SQV alone, after 60 min, samples 1-3
smiles,measurement,setting,value
"Cc1ccnc2c1NC(=O)c1cccnc1N2C1CC1 [NVP, nevirapine]",efflux ratio at 60 min,"[1]; Caco-2, Efflux ratio ER, [3H] NVP alone, after 60 min, samples 1-3",1.03
same,Papp A→B at 60 min,[1]; [4],42.7 ×10⁻⁶ cm/s
same,Papp B→A at 60 min,[1]; [5],39.5 ×10⁻⁶ cm/s
same,Papp A→B at 60 min,"[1]; Caco-2, PappAB Papp, [3H] NVP alone, after 60 min, samples 1-3",52.9 ×10⁻⁶ cm/s
same,Papp B→A at 60 min,"[1]; Caco-2, PappBA Papp, [3H] NVP alone, after 60 min, samples 1-3",54.7 ×10⁻⁶ cm/s
same,Apical to basal transport,[2]; [6],78.8 pmol and 80.8 pmol and 79.4 pmol
same,Basal to apical transport,[2]; [6],59.7 pmol and 67.9 pmol and 77.2 pmol
same,Apical to basal transport Mean,[2]; [7],79.68 pmol
same,Basal to apical transport Mean,[2]; [7],68.27 pmol
same,Apical to basal transport,[2]; [8],111.5 pmol and 123.2 pmol and 109.9 pmol
same,Basal to apical transport,[2]; [8],81.9 pmol and 91.5 pmol and 105.1 pmol
same,Apical to basal transport Mean,[2]; [9],114.88 pmol
same,Basal to apical transport Mean,[2]; [9],92.84 pmol
same,Apical to basal transport,[2]; [10],116.3 pmol and 120.3 pmol and 122.0 pmol
same,Basal to apical transport,[2]; [10],92.9 pmol and 107.5 pmol and 118.9 pmol
same,Apical to basal transport Mean,[2]; [11],119.53 pmol
same,Basal to apical transport Mean,[2]; [11],106.41 pmol
same,Apical to basal transport,[2]; [12],123.9 pmol and 122.5 pmol and 120.2 pmol
same,Basal to apical transport,[2]; [12],98.8 pmol and 112.2 pmol and 132.2 pmol
same,Apical to basal transport Mean,[2]; [13],122.19 pmol
same,Basal to apical transport Mean,[2]; [13],114.39 pmol
same,Apical to basal transport Conc. Apical,[2]; [14],177.1 pmol and 196.6 pmol and 189.3 pmol
same,Basal to apical transport Conc. Basal,[2]; [14],129.9 pmol and 207.3 pmol and 202.9 pmol
same,Efflux ratio ER,[2]; [14],0.80
same,PappAB Papp,[2]; [14],40.3 ×10⁻⁶ cm/s and 34.9 ×10⁻⁶ cm/s
same,PappBA Papp,[2]; [14],32.1 ×10⁻⁶ cm/s and 31.7 ×10⁻⁶ cm/s
same,Effect on the transport of IVM,[2],increased
same,Effect on the transport of PZQ,[2],did not affect
"Cc1cccc(C)c1OCC(=O)N[C@@H](Cc1ccccc1)[C@@H](O)C[C@H](Cc1ccccc1)NC(=O)[C@H](C(C)C)N1CCCNC1=O [LPV, lopinavir]",Papp A→B at 60 min,[1]; [4],4.8 ×10⁻⁶ cm/s
same,Papp B→A at 60 min,[1]; [5],32.1 ×10⁻⁶ cm/s
same,Papp A→B at 60 min,"[1]; Caco-2, PappAB Papp, [3H] LPV alone, after 60 min, samples 1-3",5.95 ×10⁻⁶ cm/s
same,Papp B→A at 60 min,"[1]; Caco-2, PappBA Papp, [3H] LPV alone, after 60 min, samples 1-3",36.3 ×10⁻⁶ cm/s
same,Apical to basal transport,[2]; [15],0.92 pmol and 0.73 pmol and 0.68 pmol
same,Basal to apical transport,[2]; [15],4.42 pmol and 4.44 pmol and 5.33 pmol
same,Apical to basal transport Mean,[2]; [16],0.78 pmol
same,Basal to apical transport Mean,[2]; [16],4.73 pmol
same,Apical to basal transport,[2]; [17],1.24 pmol and 1.79 pmol and 1.27 pmol
same,Basal to apical transport,[2]; [17],7.38 pmol and 6.91 pmol and 8.43 pmol
same,Apical to basal transport Mean,[2]; [18],1.43 pmol
same,Basal to apical transport Mean,[2]; [18],7.57 pmol
same,Apical to basal transport,[2]; [19],1.93 pmol and 2.34 pmol and 1.52 pmol
same,Basal to apical transport,[2]; [19],9.01 pmol and 8.46 pmol and 10.62 pmol
same,Apical to basal transport Mean,[2]; [20],1.93 pmol
same,Basal to apical transport Mean,[2]; [20],9.36 pmol
same,Apical to basal transport,[2]; [21],2.15 pmol and 2.71 pmol and 1.78 pmol
same,Basal to apical transport,[2]; [21],11.97 pmol and 11.41 pmol and 12.04 pmol
same,Apical to basal transport Mean,[2]; [22],2.21 pmol
same,Basal to apical transport Mean,[2]; [22],11.81 pmol
same,PappBA Mean,"[2]; [3H] LPV alone, after 60 min, mean, n=3",32.09 10^9 cm/s
same,Apical to basal transport Conc. Apical,[2]; [23],18.43 pmol and 19.89 pmol
same,Basal to apical transport Conc. Basal,[2]; [23],14.48 pmol and 17.27 pmol and 21.60 pmol
same,Effect on the transport of IVM,[2],twofold decrease in the efflux ratio
"CC(C)(C)NC(=O)[C@@H]1C[C@@H]2CCCC[C@@H]2CN1C[C@@H](O)[C@H](Cc1ccccc1)NC(=O)[C@H](CC(N)=O)NC(=O)c1ccc2ccccc2n1 [SQV, saquinavir]",Log Kow,[3],2.5
same,Papp A→B at 60 min,[1]; [4],6.9 ×10⁻⁶ cm/s
same,Papp B→A at 60 min,[1]; [5],21.1 ×10⁻⁶ cm/s
same,Papp A→B at 60 min,"[1]; Caco-2, PappAB Papp, SQV alone, after 60 min, samples 1-3",7.01 ×10⁻⁶ cm/s
same,Papp B→A at 60 min,"[1]; Caco-2, PappBA Papp, SQV alone, after 60 min, samples 1-3",25.1 ×10⁻⁶ cm/s
same,Apical to basal transport Mean,[2]; [24],3.18 pmol
same,Basal to apical transport Mean,[2]; [24],6.29 pmol
same,Apical to basal transport,[2]; [25],3.93 pmol and 2.52 pmol and 3.10 pmol
same,Basal to apical transport,[2]; [25],5.98 pmol and 5.60 pmol and 7.29 pmol
same,Apical to basal transport Mean,[2]; [26],4.32 pmol
same,Basal to apical transport Mean,[2]; [26],11.52 pmol
same,Apical to basal transport,[2]; [27],4.59 pmol and 4.09 pmol and 4.29 pmol
same,Basal to apical transport,[2]; [27],10.77 pmol and 11.26 pmol and 12.52 pmol
same,Apical to basal transport Mean,[2]; [28],5.73 pmol
same,Basal to apical transport Mean,[2]; [28],16.09 pmol
same,Apical to basal transport,[2]; [29],5.76 pmol and 5.30 pmol and 6.14 pmol
same,Basal to apical transport,[2]; [29],16.14 pmol and 16.78 pmol and 15.35 pmol
same,Apical to basal transport Mean,[2]; [30],6.40 pmol
same,Basal to apical transport Mean,[2]; [30],20.56 pmol
same,Apical to basal transport,[2]; [31],6.59 pmol and 5.67 pmol and 6.93 pmol
same,Basal to apical transport,[2]; [31],18.19 pmol and 23.27 pmol
same,PappAB Mean,[2]; [32],6.56 ×10⁻⁶ cm/s
same,PappBA Mean,[2]; [32],10.8 ×10⁻⁶ cm/s
same,Apical to basal transport,[2]; [33],2.74 pmol and 2.54 pmol and 3.32 pmol
same,Basal to apical transport,[2]; [33],8.18 pmol and 6.66 pmol and 9.42 pmol
same,Apical to basal transport Mean,"[2]; SQV alone, 60 min, mean, n=3",2.87 pmol
same,Basal to apical transport Mean,"[2]; SQV alone, 60 min, mean, n=3",8.09 pmol
same,Apical to basal transport Mean,"[2]; SQV alone, 120 min, mean, n=3",5.52 pmol
same,Basal to apical transport Mean,"[2]; SQV alone, 120 min, mean, n=3",14.27 pmol
same,Apical to basal transport,[2]; [34],7.42 pmol and 7.24 pmol and 8.40 pmol
same,Basal to apical transport,[2]; [34],18.6 pmol and 17.14 pmol and 18.78 pmol
same,Apical to basal transport Mean,"[2]; SQV alone, 180 min, mean, n=3",7.69 pmol
same,Basal to apical transport Mean,"[2]; SQV alone, 180 min, mean, n=3",18.17 pmol
same,Apical to basal transport,[2]; [35],9.18 pmol and 8.8 pmol
same,Basal to apical transport,[2]; [35],21.42 pmol and 26.66 pmol
same,Apical to basal transport Mean,"[2]; SQV alone, 240 min, mean, n=3",9.74 pmol
same,Basal to apical transport Mean,"[2]; SQV alone, 240 min, mean, n=3",23.51 pmol
same,Apical to basal transport Conc. Apical,[2]; [36],23.25 pmol and 22.93 pmol
same,Basal to apical transport Conc. Basal,[2]; [36],19.35 pmol and 21.54 pmol and 28.21 pmol
same,PappAB Papp,[2]; [36],6.59 ×10⁻⁶ cm/s and 7.13 ×10⁻⁶ cm/s
same,PappBA Papp,[2]; [36],18.4 ×10⁻⁶ cm/s and 19.9 ×10⁻⁶ cm/s
same,Effect on the transport of PZQ,[2],did not affect
same,Papp AP → BL,"[2]; mean (n=3) after 60 min, drug A alone, or label 'A + B' = transport of A in presence of interacting drug B, concentrations per Table 1",6.6 ×10⁻⁶ cm/s
